Experimental data reported in paper PMC6514607, “Synthesis of Chromen-4-One-Oxadiazole Substituted Analogs as Potent β-Glucuronidase Inhibitors” (Molecules, 2019).

| melting point [°C] | Structure (SMILES) |
| --- | --- |
| 288 to 289 | O=c1cc(-c2ccc(-c3nnc(-c4ccc(Cl)cc4)o3)cc2)oc2ccccc12 [Compound 1, 2-(4-(5-(4-Chlorophenyl)-1,3,4-oxadiazol-2-yl)phenyl)-4H-chromen-4-one] |
| 282 to 283 | O=c1cc(-c2ccc(-c3nnc(-c4cccc(Cl)c4)o3)cc2)oc2ccccc12 [Compound 2, 2-(4-(5-(3-Chlorophenyl)-1,3,4-oxadiazol-2-yl)phenyl)-4H-chromen-4-one] |
| 276 to 277 | O=c1cc(-c2ccc(-c3nnc(Cc4ccccc4Cl)o3)cc2)oc2ccccc12 [Compound 3, 2-(4-(5-(2-Chlorobenzyl)-1,3,4-oxadiazol-2-yl)phenyl)-4H-chromen-4-one] |
| 291 to 292 | O=c1cc(-c2ccc(-c3nnc(-c4ccccc4F)o3)cc2)oc2ccccc12 [Compound 6, 2-(4-(5-(2-Fluorophenyl)-1,3,4-oxadiazol-2-yl)phenyl)-4H-chromen-4-one] |
| 260 to 261 | Cc1ccccc1-c1nnc(-c2ccc(-c3cc(=O)c4ccccc4o3)cc2)o1 [Compound 9, 2-(4-(5-(o-Tolyl)-1,3,4-oxadiazol-2-yl)phenyl)-4H-chromen-4-one] |
| 287 to 288 | O=c1cc(-c2ccc(-c3nnc(-c4ccccc4[N+](=O)[O-])o3)cc2)oc2ccccc12 [Compound 12, 2-(4-(5-(2-Nitrophenyl)-1,3,4-oxadiazol-2-yl)phenyl)-4H-chromen-4-one] |
| 286 to 287 | COc1ccccc1-c1nnc(-c2ccc(-c3cc(=O)c4ccccc4o3)cc2)o1 [Compound 15, 2-(4-(5-(2-Methoxyphenyl)-1,3,4-oxadiazol-2-yl)phenyl)-4H-chromen-4-one] |
| 270 to 271 | O=c1cc(-c2ccc(-c3nnc(-c4ccccn4)o3)cc2)oc2ccccc12 [Compound 16, 2-(4-(5-(Pyridin-2-yl)-1,3,4-oxadiazol-2-yl)phenyl)-4H-chromen-4-one] |
| 280 to 281 | O=c1cc(-c2ccc(-c3nnc(-c4ccccc4)o3)cc2)oc2ccccc12 [Compound 19, 2-(4-(5-Phenyl-1,3,4-oxadiazol-2-yl)phenyl)-4H-chromen-4-one] |

More lines, now with the values behind:

| Structure (SMILES) | melting point [°C] |
| --- | --- |
| O=c1cc(-c2ccc(-c3nnc(-c4ccc(F)cc4)o3)cc2)oc2ccccc12 [Compound 4, 2-(4-(5-(4-Fluorophenyl)-1,3,4-oxadiazol-2-yl)phenyl)-4H-chromen-4-one] | 299 to 300 |
| O=c1cc(-c2ccc(-c3nnc(-c4cccc(F)c4)o3)cc2)oc2ccccc12 [Compound 5, 2-(4-(5-(3-Fluorophenyl)-1,3,4-oxadiazol-2-yl)phenyl)-4H-chromen-4-one] | 294 to 295 |
| Cc1ccc(-c2nnc(-c3ccc(-c4cc(=O)c5ccccc5o4)cc3)o2)cc1 [Compound 7, 2-(4-(5-(p-Tolyl)-1,3,4-oxadiazol-2-yl)phenyl)-4H-chromen-4-one] | 270 to 271 |
| Cc1cccc(-c2nnc(-c3ccc(-c4cc(=O)c5ccccc5o4)cc3)o2)c1 [Compound 8, 2-(4-(5-(m-Tolyl)-1,3,4-oxadiazol-2-yl)phenyl)-4H-chromen-4-one] | 264 to 265 |
| O=c1cc(-c2ccc(-c3nnc(-c4ccc([N+](=O)[O-])cc4)o3)cc2)oc2ccccc12 [Compound 10, 2-(4-(5-(4-Nitrophenyl)-1,3,4-oxadiazol-2-yl)phenyl)-4H-chromen-4-one] | 304 to 305 |
| O=c1cc(-c2ccc(-c3nnc(-c4cccc([N+](=O)[O-])c4)o3)cc2)oc2ccccc12 [Compound 11, 2-(4-(5-(3-Nitrophenyl)-1,3,4-oxadiazol-2-yl)phenyl)-4H-chromen-4-one] | 296 to 297 |
| COc1ccc(-c2nnc(-c3ccc(-c4cc(=O)c5ccccc5o4)cc3)o2)cc1 [Compound 13, 2-(4-(5-(4-Methoxyphenyl)-1,3,4-oxadiazol-2-yl)phenyl)-4H-chromen-4-one] | 307 to 308 |
| COc1cccc(-c2nnc(-c3ccc(-c4cc(=O)c5ccccc5o4)cc3)o2)c1 [Compound 14, 2-(4-(5-(3-Methoxyphenyl)-1,3,4-oxadiazol-2-yl)phenyl)-4H-chromen-4-one] | 299 to 300 |
| O=c1cc(-c2ccc(-c3nnc(-c4cccnc4)o3)cc2)oc2ccccc12 [Compound 17, 2-(4-(5-(Pyridin-3-yl)-1,3,4-oxadiazol-2-yl)phenyl)-4H-chromen-4-one] | 280 to 281 |
| O=c1cc(-c2ccc(-c3nnc(-c4ccncc4)o3)cc2)oc2ccccc12 [Compound 18, 2-(4-(5-(Pyridin-4-yl)-1,3,4-oxadiazol-2-yl)phenyl)-4H-chromen-4-one] | 288 to 289 |
